Assay [1] concerns the target T1, HDAC2 (Homo sapiens, UniProt Q92769). The assay is described as follows: In vitro HDAC activity assay (HDAC-Glo I/II), HDAC2. Details: purchased BPS Bioscience 50002. The settings on record: average of three independent assays ± standard deviation. The assay is classed as biochemical. Here is the method:
(§1) Purified HDAC1, HDAC2, and HDAC3 (in complex with the deacetylase activation domain of the human NCOR2 (amino acids 395-498)) were obtained from Enzo Life Sciences (HDAC1, catalog # BML-SE456-0050) and BPS Bioscience (HDAC2, catalog #50002 and HDAC3, catalog #50003), respectively. The enzyme activities were tested using the HDAC-Glo I/II reagents (Promega) according to a protocol provided by the manufacturer.

Assay [2] has as its target T2, HDAC3 (in complex with the deacetylase activation domain of the human NCOR2 (amino acids 395-498)) (Homo sapiens, UniProt O15379).
T2 construct: purchased BPS Bioscience 50003
The experiment in a line: In vitro HDAC activity assay (HDAC-Glo I/II), HDAC3. The assay is classed as biochemical. The settings on record: for IC50: HDAC-Glo I/II, average of three independent assays ± standard deviation. As for the experimental part:
as §1

In assay [3] the target is T1, HDAC2. The assay is described as follows: HDAC2 protein level in breast cancer cell lines, Western blot. In kind it is cell-based. Particulars: MCF7 cells, 4 h (FIG. 8A). Here is the method:
FIG. 3A: Western blot showing HDAC protein levels in MDA-MB-468 cells treated with the indicated concentration of XZ9002 for 14 h. FIG. 3B: pretreatment with 1 μM MG132, or 10 μM VHL032 for 1 h blocked the degradation of HDAC3 by XZ9002 {125 nM}. […] NC: XZ9002-NC. FIG. 3C: time-dependent experiment in MDA-MB-468 cells after treatment with 125 nM XZ9002 at the indicated time points. FIG. 3D: MDA-MB-468 cells were incubated with 125 nM of XZ9002 for 14 h followed by drug washout, and incubation of the cells in drug-free medium for an additional time. Data are presented as representative figures of two independent experiments.
The culture of the triple-negative breast cancer cell line MDA-MB-468 and the ER+ breast cancer cell line T47D was exposed to vehicle control (DMSO) and the indicated compounds at specified concentrations for 14 h. Cells were lysed for WB with antibodies against the indicated proteins. Antibodies against acetylated histones at specific sites (H3K27 and H4K5) and acetyl-lysine were used to assess levels of histone acetylation. Levels of HDAC3 were normalized against that of tubulin and % of HDAC3 protein levels in cells treated with the indicated compounds relative to that in DMSO control is shown.
FIGS. 8A-8B show the cellular activity of XZ9002. […] Cells were lysed for WB. The relative HDAC3 protein level in each sample is shown. […]
Background: A western blot detects proteins with antibodies after separation by electrophoresis.

The subject of a further assay is MDA-MB-468 cells. The assay is described as follows: Cell viability assay (CellTiter-Glo). In kind it is cell-based. As for the experimental part: MDA-MB-468, MDA-MB-231, and T47D cells were treated with the indicated compounds at different concentrations for 72 h. Cell viability was assessed with CellTiter-Glo® reagents.
(§2) Cell lines were obtained from ATCC and subsequently authenticated. Cells were cultured with DMEM supplemented with 10% bovine calf serum, penicillin to 10 units/mL, and streptomycin to 10 μg/mL. For viability assays, 5,000 cells/well were seeded in 96-well plates. Compounds at a specified concentration or DMSO were added 24 h later. Viability assays were performed 72 h after compound addition using the CellTiter-Glo reagents (Promega). For colony formation assay, cells (˜1,000 cells/well) were seeded in a 24-well plate in quadruplicates. At 24 h after seeding, DMSO, XZ9002, or XZ9002-NC were added at a specified concentration. Medium was replaced with freshly prepared medium containing DMSO, XZ9002 or XZ9002-NC every five days until visible colonies appeared, typically in 15 to 20 days after initial cell seeding. Cells were fixed with 4% paraformaldehyde for 15 min and stained with 2% methylene blue in 20% ethanol for 30 min to 1 h. The cells were washed twice with distilled water and dried in air. For western blotting, cell cultures were exposed to compounds as indicated in relevant figures. Medium was removed from culture plate, and 1 x passive lysis buffer was then added, the plates were frozen at −80° C. overnight and thawed at room temperature. The total cell lysates were mixed with a one fifth volume of 6x SDS sample buffer, heated at 95° C. for 5 min and cooled on ice. The lysates were cleared by centrifugation and then subjected to SDS-PAGE and western blotting essentially as described. […]
A general note: Cellular ATP, detected with luciferase, serves as a proxy for viable cell number.

Another assay addresses HDAC3 (Homo sapiens, UniProt O15379). The experiment in a line: HDAC3 degradation in breast cancer cell lines, Western blot. The assay is classed as cell-based. The arrangement: endogenous in cells; host or cells: MDA-MB-468, T47D, MCF7. Particulars: MCF7 cells, 4 h (FIG. 8A). The text has this: Data are presented as representative figures of two independent experiments.
Cells were lysed for WB with antibodies against the indicated proteins. Antibodies against acetylated histones at specific sites (H3K27 and H4K5) and acetyl-lysine were used to assess levels of histone acetylation.
Cells were lysed for WB. […] The indicated BC cell lines were exposed to DMSO, XZ9002, or XZ9002-NC at the indicated concentrations. Colonies were fixed and stained.
Cell lines were obtained from ATCC and subsequently authenticated. Cells were cultured with DMEM supplemented with 10% bovine calf serum, penicillin to 10 units/mL, and streptomycin to 10 μg/mL. For viability assays, 5,000 cells/well were seeded in 96-well plates. […] For colony formation assay, cells (˜1,000 cells/well) were seeded in a 24-well plate in quadruplicates. […] Medium was replaced with freshly prepared medium containing DMSO, XZ9002 or XZ9002-NC every five days until visible colonies appeared, typically in 15 to 20 days after initial cell seeding. Cells were fixed with 4% paraformaldehyde for 15 min and stained with 2% methylene blue in 20% ethanol for 30 min to 1 h. The cells were washed twice with distilled water and dried in air. For western blotting, cell cultures were exposed to compounds as indicated in relevant figures. Medium was removed from culture plate, and 1 x passive lysis buffer was then added, the plates were frozen at −80° C. overnight and thawed at room temperature. The total cell lysates were mixed with a one fifth volume of 6x SDS sample buffer, heated at 95° C. for 5 min and cooled on ice. The lysates were cleared by centrifugation and then subjected to SDS-PAGE and western blotting essentially as described.

The next assay deals with HDAC1 (Homo sapiens, UniProt Q13547). The assay is described as follows: In vitro HDAC activity assay (HDAC-Glo I/II), HDAC1. In kind it is biochemical. The settings on record: average of three independent assays ± standard deviation. Details: purchased Enzo Life Sciences BML-SE456-0050. Here is the method: as §1
Sequence of HDAC1 (Q13547 whole entry): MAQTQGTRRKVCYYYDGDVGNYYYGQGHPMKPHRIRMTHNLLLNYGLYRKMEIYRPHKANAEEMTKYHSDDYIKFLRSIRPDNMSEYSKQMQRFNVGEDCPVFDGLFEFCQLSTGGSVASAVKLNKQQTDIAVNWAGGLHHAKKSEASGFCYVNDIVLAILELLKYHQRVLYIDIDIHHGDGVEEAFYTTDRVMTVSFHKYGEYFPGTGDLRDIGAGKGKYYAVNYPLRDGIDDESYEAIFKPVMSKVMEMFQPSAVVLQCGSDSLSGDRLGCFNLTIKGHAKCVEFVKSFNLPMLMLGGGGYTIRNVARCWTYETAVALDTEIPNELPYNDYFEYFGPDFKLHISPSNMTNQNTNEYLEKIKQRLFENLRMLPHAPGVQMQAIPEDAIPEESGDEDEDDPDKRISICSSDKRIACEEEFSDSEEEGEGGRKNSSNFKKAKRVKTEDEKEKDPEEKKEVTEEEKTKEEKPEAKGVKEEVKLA
The test system of assay [4] is non-small cell lung cancer (NSCLC) cell line H1299. The assay is described as follows: Clonogenic growth assay, H1299. In kind it is cell-based. Particulars: H1299, treatment for 10 days. As for the experimental part: H1299 cells were exposed to DMSO, or 28c at the indicated concentrations. Colonies were fixed and stained after treatment for 10 days.
as §2, with “temperature.” for “temperature. The total cell lysates were mixed with a one fifth volume of 6x SDS sample buffer, heated at 95° C. for 5 min and cooled on ice. The lysates were cleared by centrifugation and then subjected to SDS-PAGE and western blotting essentially as described.”

T1 sequence (Q92769 whole entry, the tested form may be a part): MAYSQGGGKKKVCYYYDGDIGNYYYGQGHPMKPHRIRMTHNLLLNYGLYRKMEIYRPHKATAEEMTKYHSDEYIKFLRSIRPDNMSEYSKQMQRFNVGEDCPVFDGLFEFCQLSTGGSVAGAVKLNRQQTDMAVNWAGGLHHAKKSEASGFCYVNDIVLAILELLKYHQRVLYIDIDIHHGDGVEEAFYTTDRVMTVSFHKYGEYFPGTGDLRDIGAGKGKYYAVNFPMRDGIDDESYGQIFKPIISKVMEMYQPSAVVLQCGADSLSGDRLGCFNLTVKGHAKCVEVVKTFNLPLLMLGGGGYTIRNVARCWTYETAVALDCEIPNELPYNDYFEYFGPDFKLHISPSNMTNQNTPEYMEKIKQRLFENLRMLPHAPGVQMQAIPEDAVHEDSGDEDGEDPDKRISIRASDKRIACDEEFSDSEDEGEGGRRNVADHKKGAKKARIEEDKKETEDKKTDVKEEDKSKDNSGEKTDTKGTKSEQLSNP
T2 sequence (O15379 whole entry, the tested form may be a part): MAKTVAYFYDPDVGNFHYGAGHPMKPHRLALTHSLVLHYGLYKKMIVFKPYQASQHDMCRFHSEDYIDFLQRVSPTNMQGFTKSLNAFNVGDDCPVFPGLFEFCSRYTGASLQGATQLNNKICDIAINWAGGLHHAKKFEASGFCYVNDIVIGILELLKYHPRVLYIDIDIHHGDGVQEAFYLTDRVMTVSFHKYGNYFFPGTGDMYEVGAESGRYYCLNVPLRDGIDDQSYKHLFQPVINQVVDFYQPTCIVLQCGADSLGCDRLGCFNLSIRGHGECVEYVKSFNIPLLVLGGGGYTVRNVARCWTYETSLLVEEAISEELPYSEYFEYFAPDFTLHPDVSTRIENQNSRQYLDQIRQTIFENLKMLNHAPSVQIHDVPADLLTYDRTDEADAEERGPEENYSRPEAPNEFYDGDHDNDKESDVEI
T2 sequence (Q9Y618 395-498 partner limits assumed): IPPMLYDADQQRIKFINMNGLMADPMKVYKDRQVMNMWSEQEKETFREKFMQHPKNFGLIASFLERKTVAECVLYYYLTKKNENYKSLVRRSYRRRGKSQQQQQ
Sequence of HDAC3 (O15379 whole entry): as the sequence (O15379 whole entry, the tested form may be a part) above
Sequence of HDAC3 (Q9Y618 395-498 partner limits assumed): as the sequence (Q9Y618 395-498 partner limits assumed) above

On to `CCCNNC(=O)c1ccc(-c2ccc(NC(C)=O)cc2)cc1` [Compound 15, N-(4′-(2-propylhydrazine-1-carbonyl)[1,1′-biphenyl]-4-yl)acetamide], for which the IC50 was found to be 82 ± 25 nM on HDAC2 [1]; 13 ± 1 nM in assay [2]; 990 nM in the assay on MDA-MB-468 cells (Homo sapiens, MDA-MB-468 cell line, 72 h, CellTiter-Glo, read-out: IC50 cytotoxicity (cell viability)); 72 ± 10 nM at HDAC1. Moreover, the “preference for HDAC3” value in assay [2] (against the other tested HDAC isoforms) is listed as no less than 13 fold. Besides, the “HDAC2 degradation (in words)” value at HDAC2 [3] is listed as “does not significantly degrade”. Besides, the “HDAC3 degradation (in words)” value on HDAC3 is recorded as “does not significantly degrade”.

On to `CCCNNC(=O)c1ccc(N2CCN(CCCCCCCC(=O)N[C@H](C(=O)N3C[C@H](O)C[C@H]3C(=O)N[C@@H](C)c3ccc(-c4scnc4C)cc3)C(C)(C)C)CC2)cc1` [Compound 28c, (2S,4R)-1-((S)-3,3-dimethyl-2-(8-(4-(4-(2-propylhydrazine-1-carbonyl)phenyl)piperazinyl)octanamido)butanoyl)-4-hydroxy-N—((S)-1-(4-(4-methylthiazol-5-yl)phenyl)ethyl)pyrrolidine carboxamide], for which the “inhibition of clonogenic growth” value in assay [4] is “effective to inhibit clonogenic growth”.

Take `CCCNNC(=O)c1ccc(-c2ccc(NC(=O)CCCCC(=O)N[C@H](C(=O)N3C[C@H](O)C[C@H]3C(=O)N[C@@H](C)c3ccc(-c4scnc4C)cc3)C(C)(C)C)cc2)cc1` [Compound 8b, N^1—((S)-1-((2S,4R)-4-Hydroxy-2-(((S)-1-(4-(4-methylthiazol-5-yl)phenyl)ethyl)carbamoyl)pyrrolidin-1-yl)-3,3-dimethyl-1-oxobutan-2-yl)-N^6-(4′-(2-propylhydrazine-1-carbonyl)-[1,1′-biphenyl]-4-yl)adipamide]: the IC50 is 1650 ± 70 nM against HDAC2 [1], 320 ± 30 nM in assay [2] and 360 ± 60 nM on HDAC1. Further, the “antiproliferative activity (in words)” value in the assay with MDA-MB-468 cells (MDA-MB-468, 72 h, similar trends in MDA-MB-231 and T47D cells) is on record as “decreased antiproliferative activity”.

By IC50 is commonly meant the concentration that gives 50% inhibition.

For the origin of these results see patent US20230181746A1, “BENZOYLHYDRAZIDE-DERIVED HDAC DEGRADERS AS THERAPEUTICS FOR TREATING CANCER AND OTHER HUMAN DISEASES” (University of Florida Research Foundation, Inc., priority 2020, published 2023).
